# Measured values taken from paper PMC12507957 (Drug Delivery and Translational Research, 2025).
# Key:
# [1] = Forced degradation studies of MTG; format: physicochemical; conditions: over 24 h
# Procedure: Samples were taken at 6, 12 and 24 h for dissolution and/or dilution before HPLC analysis (Sect. HPLC analysis).
# (§1) Samples were analysed using Shimadzu liquid chromatographic system (Kyoto, Japan) with SPD-20A UV–vis detector set at 254 nm. A reverse phase ZORBAX Eclipse Plus C18 column (Agilent Technologies, 150 × 4.6 mm ID × 3.5 μm) coupled with a C18 guard column (Phenomenex SecurityGuard™, 4 × 3.0 mm ID × 5 μm) was employed as the stationary phase. A gradient elution method with acetonitrile and 0.1%v/v of formic acid as the mobile phase (30:70 to 70:30 (v/v) over 1 min and held until 4 min; then returned to 30:70 (v/v) from 4 to 6 min and held up until 10 min) at a flow rate of 1.2 mL/min was used. The injection volume was set at 100 μL and the total run time was 10 min with a retention time of ~ 4 min.
# [2] = Stability studies of MTG in simple solvent systems with and without BHT; format: physicochemical
# Procedure: as §1, with “min. The limits of detection and quantification were 0.47 and 1.43 μg/mL for a lower concentration drug range (0.5–10 μg/mL) and 4.29 and 13.01 μg/mL for a higher concentration drug range (10–175 μg/mL), respectively. The linearity for both calibration curves was excellent (R^2 > 0.999).” for “min.”
# [3] = In vitro drug release of MTG from gels (Franz cell); conditions: nylon membrane, time point not clearly stated (steady release up to 2 h)
# Procedure: The in vitro permeation study was performed in triplicate using Franz diffusion cell apparatus with a diffusion area of ~ 0.8 cm^2 and a receptor volume of ~ 3 mL. The porcine skin was thawed at room temperature and cut into an appropriate size before mounting on the Franz diffusion cells. The receptor compartment was filled with PBS containing 0.02%w/v of sodium azide and a selected antioxidant. The Franz diffusion cells were placed into a water bath to maintain the skin temperature at 32 ± 0.5 °C. […] After 48-h permeation studies, the mass balance studies were performed. The samples were extracted for MTG content overnight before HPLC analysis.
# BHT at the optimised concentration was also added accordingly. The gels were evaluated for their drug content by mixing the gel in methanol for overnight extraction of MTG before HPLC analysis (Sect. HPLC analysis). In vitro drug release studies were carried out with a similar experimental setup as described in Sect. In vitro permeation and mass balance studies but porcine skin was replaced with a 0.45 µm nylon membrane filter and 40 μL of gel was loaded on the membrane at the donor compartment. Subsequent in vitro permeation and mass balance studies were performed as described in Sect. In vitro permeation and mass balance studies by loading 40 μL of the gel on the skin.
smiles,measurement,setting,value
"CC[C@@H]1CN2CCc3c([nH]c4cccc(OC)c34)[C@@H]2C[C@@H]1/C(=C\OC)C(=O)OC [MTG, mitragynine]",Degradation of MTG,[1]; oxidative and alkaline conditions,~ 95%
same,Degradation of MTG,[1]; thermal degradation,~ 90%
same,Percentage recovery of MTG,"[2]; 200 μg/mL in DMSO without BHT, 32 °C, after 96 h",67.68 ± 1.22%
same,Percentage recovery of MTG,"[2]; 200 μg/mL in Labrasol with 0.01%w/v BHT, 32 °C, after 96 h",46.34 ± 2.49%
same,Percentage recovery of MTG,"[2]; 200 μg/mL in Labrasol without BHT, 32 °C, after 96 h",4.39 ± 0.70%
same,Percentage recovery of MTG,"[2]; 200 μg/mL in Lauroglycol without BHT, 32 °C, after 96 h",30.84 ± 1.21%
same,Percentage recovery of MTG,"[2]; 200 μg/mL in Maisine without BHT, 32 °C, after 96 h",19.65 ± 1.17%
same,Percentage recovery of MTG,"[2]; 200 μg/mL in PG without BHT, 32 °C, after 96 h",73.82 ± 1.05%
same,Percentage recovery of MTG,"[2]; 200 μg/mL in Transcutol without BHT, 32 °C, after 96 h",40.23 ± 5.46%
same,Percentage recovery of MTG,"[2]; DMSO, PG and Transcutol with at least 0.05%w/v of BHT",above 80%
same,Percentage recovery of MTG,[2]; in all solvents (without BHT) after 96 h,< 80%
same,Percentage recovery of MTG,"[2]; remaining solvents (Transcutol, Lauroglycol, Maisine, Labrasol) without BHT, after 96 h",< 50%
same,Drug release percentage,[3]; 1% MTG gel with DMSO,65.07 ± 7.59%
same,Drug release percentage,[3]; 1% MTG gel with PG,57.45 ± 3.18%
same,Drug release percentage,[3]; 1% MTG gel with Transcutol,78.48 ± 6.17%
